Test results from PubChem BioAssay AID1918936 (Molecular Pharmacology Branch, DTP, NCI, 2023).

Test system: 349418-098-R-PDC complex spheroid viability
Assay: Anticancer human tumor 349418-098-R-PDC patient-derived lung adenocarcinoma cell line growth inhibition
Settings: for IC50: curve of first compound; for viability, T/C: stronger effect = lower value
Outline: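 Complex spheroids of tumor cells with HUVEC and human MSCs, exposed to iadademstat combined with other agents. Each agent tested in half-log steps from near clinical Cmax (else 10 microM top), DMSO ≤0.25%.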
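Note: spheroids exposed to agents for seven days before readout.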
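Throughout, for viability, T/C: 100% = DMSO vehicle control wells.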

SMILES: CC(C)CC(NC(=O)CNC(=O)c1cc(Cl)ccc1Cl)B1OC(=O)CC(CC(=O)O)(C(=O)O)O1 (stereo not given) + NC1CCC(NC2CC2c2ccccc2)CC1
- IC50 (second compound 0.1 µM): 0.62 nM
- IC50 (second compound 0.316 µM): 0.661 nM
- IC50 (second compound 1 µM): 0.681 nM
- IC50 (second compound 3.16 µM): 0.596 nM
- IC50 (second compound 10 µM): 0.606 nM
- viability, T/C (second compound 0.1 µM, first compound 0.000316 µM): 89.2%
- viability, T/C (second compound 0.1 µM, first compound 0.001 µM): 22%
- viability, T/C (second compound 0.1 µM, first compound 0.00316 µM): 4.81%
- viability, T/C (second compound 0.1 µM, first compound 0.01 µM): 1.88%
- viability, T/C (second compound 0.1 µM, first compound 0.0316 µM): 1.17%
- viability, T/C (second compound 0.1 µM, first compound 0.1 µM): 1.44%
- viability, T/C (second compound 0.316 µM, first compound 0.000316 µM): 97.2%
- viability, T/C (second compound 0.316 µM, first compound 0.001 µM): 23.5%
- viability, T/C (second compound 0.316 µM, first compound 0.00316 µM): 4.46%
- viability, T/C (second compound 0.316 µM, first compound 0.01 µM): 1.83%
- viability, T/C (second compound 0.316 µM, first compound 0.0316 µM): 1.73%
- viability, T/C (second compound 0.316 µM, first compound 0.1 µM): 1.09%
- viability, T/C (second compound 1 µM, first compound 0.000316 µM): 96.5%
- viability, T/C (second compound 1 µM, first compound 0.001 µM): 26.8%
- viability, T/C (second compound 1 µM, first compound 0.00316 µM): 4.37%
- viability, T/C (second compound 1 µM, first compound 0.01 µM): 1.55%
- viability, T/C (second compound 1 µM, first compound 0.0316 µM): 1.3%
- viability, T/C (second compound 1 µM, first compound 0.1 µM): 0.81%
- viability, T/C (second compound 3.16 µM, first compound 0.000316 µM): 82.2%
- viability, T/C (second compound 3.16 µM, first compound 0.001 µM): 23.4%
- viability, T/C (second compound 3.16 µM, first compound 0.00316 µM): 4.76%
- viability, T/C (second compound 3.16 µM, first compound 0.01 µM): 1.66%
- viability, T/C (second compound 3.16 µM, first compound 0.0316 µM): 1.29%
- viability, T/C (second compound 3.16 µM, first compound 0.1 µM): 0.98%
- viability, T/C (second compound 10 µM, first compound 0.000316 µM): 90.5%
- viability, T/C (second compound 10 µM, first compound 0.001 µM): 18.7%
- viability, T/C (second compound 10 µM, first compound 0.00316 µM): 4.32%
- viability, T/C (second compound 10 µM, first compound 0.01 µM): 1.66%
- viability, T/C (second compound 10 µM, first compound 0.0316 µM): 1.03%
- viability, T/C (second compound 10 µM, first compound 0.1 µM): 0.65%
